For assay [1], the system named is HBV-specific T cells. The following applies: cumulative over papers, responder = positive multimer staining and/or IFN-γ ELISPOT, ref Hepitopes database [24], [49], cited from earlier work; for % responders (no. of responders/total no. of subjects tested), Acute: patients with acute/resolved HBV infection, asterisk = significantly more prevalent than in other groups; for % responders (no. of responders/total no. of subjects tested), HCC: HBV-positive HCC patients; for % responders (no. of responders/total no. of subjects tested), Chronic: chronic HBV patients.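 For all read-outs here: responder rates refer to previously reported epitopes of HBx or polymerase.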

Assay [2] concerns the target HLA-B*07:02 (Homo sapiens, UniProt P01889). The assay can be described thus: UV-based in vitro HLA binding assay (peptide exchange + HLA-I ELISA), HLA-B*07:02. The following applies: conditional pHLA 0.53 μM, peptide 50 μM, 30 min 366-nm UV, absorbance 414 nm normalized to high-affinity positive control (100%), two exchanges, each in duplicate. The method, then: (§1) Next, the HLA-binding capacity of selected peptides was tested in a UV-based in vitro binding assay. […] HLA-A*11:01 and HLA-A*03:01 were both tested as members of the HLA-A*03 supertype since many HBV-infected patients are Asian and HLA-A*11:01 is more prevalent in this population than the supertype representative HLA-A*03:01, which is more prevalent in Caucasians ([72]). We identified 13 binders for HBx and 33 for Pol across HLA supertypes, including novel binders that have been described previously in the context of another HLA type (Fig. 5A to G, dotted underlining, and Fig. 5H). […] In contrast, binding of infrequently reported epitopes (Fig. 5, solid underlining) could not always be verified.
(§2) Synthetic peptides (Peptide 2.0 Inc.) of selected potential HLA binders were used in an in vitro binding assay as described previously ([96]). […] Subsequently, the peptide exchange efficiency was analyzed using an HLA-I enzyme-linked immunosorbent assay (ELISA), which detects beta-2-microglobulin of peptide-stabilized HLA-I complexes in an exchange reaction mixture. […] The reaction was stopped after 8 min (incubation at room temperature) by the addition of a 2% (wt/vol) oxalic acid dihydrate stop solution (Sanquin Reagents BV) and read in a Thermo Electron Multiskan Ascent ELISA reader at 414 nm. […] Every exchange mixture was measured in duplicate by the HLA-I ELISA. […]

The subject of assay [3] is PBMCs from blood donors who had previously resolved an HBV infection. In words: Immunogenicity: IFN-γ ELISA on peptide-expanded PBMCs of HBV resolvers. In kind it is cell-based, human. The following applies: for number of responsive donors as a fraction of the total number of subjects tested: PBMCs expanded 14 days, restimulated 48 h, 10 μg/ml/peptide, response = mean OD ≥ mean + 2 SD of DMSO; for IFN-γ production in response to peptide, in words: expanded PBMCs from 9 HBV resolvers, HLA-matched, single-peptide restimulation 48 h, 10 μg/ml, DMSO-subtracted. The method, then: Finally, the immunogenicity of all HBx- and Pol-derived binders was assessed to determine which binders would be most interesting for the development of an antigen-based HBV-targeting immunotherapy.
Briefly, PBMCs were isolated by Ficoll (GE Healthcare) density centrifugation from buffy coats of 9 donors who had previously resolved HBV infection. Buffy coats were provided by the local blood bank with corresponding 2-digit HLA types. Four-digit HLA typing was performed for 7 out of 9 donors using the global screening array (GSA) (Illumina through the Human Genomics Facility, Erasmus MC Rotterdam) (Table 3). All donors gave written informed consent. PBMCs were cultured in Iscove’s modified Dulbecco’s medium (IMDM) (Lonza) containing 2% human serum (Sanquin) and 50 IU/ml human interleukin-2 (hIL-2) (Miltenyi) in the presence of peptide pools of a maximum of 5 peptides of interest based on HLA matching at 10 μg/ml/peptide. After 14 days, 200,000 cells were restimulated with the peptides of interest for 48 h at 37°C with 10 μg/ml/peptide in triplicate. Supernatants from restimulations were subsequently used in a human IFN-γ (hIFN-γ) ELISA (BioLegend) according to the manufacturer’s instructions. Plates were read at a 450-nm wavelength using an Infinite 200Pro ELISA reader. hIFN-γ levels were calculated from background-subtracted optical density (OD) values (means from triplicates) using a supernatant derived from a previously successful restimulation with c18-27 that was quantified in a separate ELISA using the hIFN-γ standard provided by the manufacturer. HLA binders with a mean OD value of at least the mean plus 2 times the standard deviation (SD) of the dimethyl sulfoxide (DMSO) control were quantified.

For assay [4], the system named is cytotoxic T cells. The conditions noted are these: HLA-A*24:02 peptide, ref Yamamiya et al. [89]; cited from earlier work. An excerpt: We identified a few novel epitopes for which the sequence overlaps that of an epitope that has previously been described for the HLA type tested. […] It would now be interesting to investigate how responses to these epitope variants relate in CHB patients, especially since p755-764 has been the only HBV-derived epitope described for supertype HLA-A*24 until very recently. For HLA-A*24:02, we studied the binding cap ...

For assay [5], the target named is HLA-A*24:02 (Homo sapiens, UniProt P04439, D101N/D140Y/D185E/E176V/E190D/F33S/G103R/G107R/I119L/I121M/I306V/K335N/L105A/L180Q/L300P/N151K/N90K/Q86E/Q94H/R106L/R138H/R89G/T104I/T345S/V100E/W191G/Y123F). The assay can be described thus: UV-based in vitro HLA binding assay (peptide exchange + HLA-I ELISA), HLA-A*24:02. The conditions noted are these: conditional pHLA 0.53 μM, peptide 50 μM, 30 min 366-nm UV, absorbance 414 nm normalized to high-affinity positive control (100%), two exchanges, each in duplicate. How it is done: as §1, §2
A general note: In an ELISA, binding on a coated surface is turned into a signal by an enzyme label.

The target in assay [6] is HLA-B*08:01 (Homo sapiens, UniProt P01889, A93T/A95T/D138N/E176V/E187T/K202T/Q94N/R180D/S35A/V36M/Y33D/Y91F). In words: UV-based in vitro HLA binding assay (peptide exchange + HLA-I ELISA), HLA-B*08:01. The following applies: conditional pHLA 0.53 μM, peptide 50 μM, 30 min 366-nm UV, absorbance 414 nm normalized to high-affinity positive control (100%), two exchanges, each in duplicate. The source says:
Nonbound material was removed by washing. […] Every peptide was independently exchanged twice.

Marks after values point to notes of the source that are not given here.

As for SAICSVVRR, in assay [1], the “% responders (no. of responders/total no. of subjects tested), Acute” value was 9 (2/22) %.
With GLSRYVARL [p453-461], in assay [1], the “% responders (no. of responders/total no. of subjects tested), HCC” value is listed as 0 (0/10) %; the “% responders (no. of responders/total no. of subjects tested), Chronic” value is 6 (5/87) %; the “% responders (no. of responders/total no. of subjects tested), Acute” value is on record as 50 (39/78)* %.
In the case of VLGGCRHKL [x133-141], in assay [1], the “% responders (no. of responders/total no. of subjects tested), HCC” value was 0 (0/10) % and the “% responders (no. of responders/total no. of subjects tested), Chronic” value was 0 (0/20) %.
Turning to LVVDFSQFSR [p388-397], the “% responders (no. of responders/total no. of subjects tested), Acute” value in assay [1] is reported as 5 (1/22) %.
As to NVSIPWTHK [p47-55], the “% responders (no. of responders/total no. of subjects tested), Acute” value in assay [1] is reported as 5 (1/21) %.
Consider TPARVTGGVF [p365-374], for which the “HLA binding class (binder/nonbinder), HLA-B*07:02” value in assay [2] is recorded as “binder (binders (>25% of the positive control))”. Further, in assay [3] (HLA-B*07:02 donors), the “number of responsive donors as a fraction of the total number of subjects tested” value was 4/4. In addition, in assay [1], the “% responders (no. of responders/total no. of subjects tested), Acute” value was 17 (2/12) %.
Consider GYPALMPLY [p650-658], for which the “number of responsive donors as a fraction of the total number of subjects tested” value in assay [3] (HLA-A*24:02 donors) is recorded as 1 of the 2. Also, the “responding HBV resolvers” value in assay [4] was “none of the 3”.
Consider ILRGTSFVYV, for which, in assay [1], the “% responders (no. of responders/total no. of subjects tested), Chronic” value was 0 (0/9) % and the “% responders (no. of responders/total no. of subjects tested), Acute” value is 43 (3/7) %.
Take KLVCSPAPC: the “% responders (no. of responders/total no. of subjects tested), HCC” value in assay [1] was 50 (3/6) %.
With TLWKAGILYK [p150-159], the “% responders (no. of responders/total no. of subjects tested), Acute” value in assay [1] is reported as 18 (5/28) %.
As to YMDDVVLGA [p549-557], the “IFN-γ production in response to peptide, in words” value in assay [3] is “IFN-γ production was detected”. For the same sequence, in assay [1], the “% responders (no. of responders/total no. of subjects tested), HCC” value was 0 (0/10) %; the “% responders (no. of responders/total no. of subjects tested), Chronic” value is recorded as 0 (0/21) %; the “% responders (no. of responders/total no. of subjects tested), Acute” value was 15 (2/13) %.
Consider HPAAMPHLL [p440-448], for which the “% responders (no. of responders/total no. of subjects tested), Acute” value in assay [1] is on record as 0 (0/12) %.
QAFTFSPTYK [p665-674]: the “% responders (no. of responders/total no. of subjects tested), Acute” value in assay [1] is on record as 14 (3/21) %.
Regarding YLHTLWKAGI [p147-156], the “% responders (no. of responders/total no. of subjects tested), HCC” value in assay [1] was 0 (0/10) %.
On to NLSWLSLDV [p422-430], for which the “% responders (no. of responders/total no. of subjects tested), HCC” value in assay [1] was 0 (0/10) %.
In the case of KYTSFPWLL [p756-764], in assay [1], the “% responders (no. of responders/total no. of subjects tested), Chronic” value is on record as 48 (10/21) % and the “% responders (no. of responders/total no. of subjects tested), Acute” value is 93 (13/14)* %.
Turning to KVGNFTGLY [p55-63], the “% responders (no. of responders/total no. of subjects tested), Acute” value in assay [1] was 9 (2/22) %.
For the sequence ASFCGSPYSW [p166-175], the “HLA binding class (binder/nonbinder), HLA-A*24:02” value in assay [5] was “binder (binders (>25% of the positive control))”.
Consider SLYADSPSV [p814-822], for which, in assay [1], the “% responders (no. of responders/total no. of subjects tested), Chronic” value is given as 0 (0/22) % and the “% responders (no. of responders/total no. of subjects tested), Acute” value is given as 25 (11/44)* %.
On to FLLSLGIHL [p573-581], for which, in assay [1], the “% responders (no. of responders/total no. of subjects tested), HCC” value was 0 (0/10) %; the “% responders (no. of responders/total no. of subjects tested), Chronic” value is 13 (9/70) %; the “% responders (no. of responders/total no. of subjects tested), Acute” value was 59 (50/85)* %.
With VLHKRTLGL [x92-100], in assay [6], the “HLA binding class (binder/nonbinder), HLA-B*08:01” value is given as “binder (binders (>25% of the positive control))”. In assay [1], the “% responders (no. of responders/total no. of subjects tested), HCC” value was 19 (3/16) % and the “% responders (no. of responders/total no. of subjects tested), Chronic” value is given as 0 (0/20) %.
On to YPALMPLYA [p651-659], for which the “% responders (no. of responders/total no. of subjects tested), Acute” value in assay [1] is listed as 0 (0/12) %.
Turning to HLSLRGLPV [x52-60], the “HLA binding class (binder/nonbinder), HLA-B*08:01” value in assay [6] was “binder (binders (>25% of the positive control))”. Also, in assay [1], the “% responders (no. of responders/total no. of subjects tested), HCC” value was 19 (3/16) % and the “% responders (no. of responders/total no. of subjects tested), Chronic” value is reported as 0 (0/20) %.
Regarding ALMPLYACI [p653-661], in assay [1], the “% responders (no. of responders/total no. of subjects tested), HCC” value is 0 (0/10) %; the “% responders (no. of responders/total no. of subjects tested), Chronic” value is recorded as 0 (0/9) %; the “% responders (no. of responders/total no. of subjects tested), Acute” value is 20 (4/20) %.
In the case of CLFKDWEEL, in assay [1], the “% responders (no. of responders/total no. of subjects tested), HCC” value was 50 (3/6) %.
For the sequence HTLWKAGILYK [p149-159], the “% responders (no. of responders/total no. of subjects tested), Acute” value in assay [1] was 5 (1/22) %.
Turning to QLDPARDVL, in assay [1], the “% responders (no. of responders/total no. of subjects tested), HCC” value was 0 (0/10) %; the “% responders (no. of responders/total no. of subjects tested), Chronic” value was 0 (0/20) %; the “% responders (no. of responders/total no. of subjects tested), Acute” value is recorded as 25 (1/4) %.
On to RKYTSFPWLL [p755-764], for which the “IFN-γ production in response to peptide, in words” value in assay [3] is recorded as “superior IFN-γ production compared to the known epitope p756-764 in both donors tested”.
